{
  "source": "patent US9815796B2",
  "about": "(Merck Sharp & Dohme Corp., priority 2013, dated 2017)",
  "biological_target": "Rhesus PDE2A3 (Macaca mulatta, UniProt B3VTJ2)",
  "sequence (B3VTJ2 1-941)": "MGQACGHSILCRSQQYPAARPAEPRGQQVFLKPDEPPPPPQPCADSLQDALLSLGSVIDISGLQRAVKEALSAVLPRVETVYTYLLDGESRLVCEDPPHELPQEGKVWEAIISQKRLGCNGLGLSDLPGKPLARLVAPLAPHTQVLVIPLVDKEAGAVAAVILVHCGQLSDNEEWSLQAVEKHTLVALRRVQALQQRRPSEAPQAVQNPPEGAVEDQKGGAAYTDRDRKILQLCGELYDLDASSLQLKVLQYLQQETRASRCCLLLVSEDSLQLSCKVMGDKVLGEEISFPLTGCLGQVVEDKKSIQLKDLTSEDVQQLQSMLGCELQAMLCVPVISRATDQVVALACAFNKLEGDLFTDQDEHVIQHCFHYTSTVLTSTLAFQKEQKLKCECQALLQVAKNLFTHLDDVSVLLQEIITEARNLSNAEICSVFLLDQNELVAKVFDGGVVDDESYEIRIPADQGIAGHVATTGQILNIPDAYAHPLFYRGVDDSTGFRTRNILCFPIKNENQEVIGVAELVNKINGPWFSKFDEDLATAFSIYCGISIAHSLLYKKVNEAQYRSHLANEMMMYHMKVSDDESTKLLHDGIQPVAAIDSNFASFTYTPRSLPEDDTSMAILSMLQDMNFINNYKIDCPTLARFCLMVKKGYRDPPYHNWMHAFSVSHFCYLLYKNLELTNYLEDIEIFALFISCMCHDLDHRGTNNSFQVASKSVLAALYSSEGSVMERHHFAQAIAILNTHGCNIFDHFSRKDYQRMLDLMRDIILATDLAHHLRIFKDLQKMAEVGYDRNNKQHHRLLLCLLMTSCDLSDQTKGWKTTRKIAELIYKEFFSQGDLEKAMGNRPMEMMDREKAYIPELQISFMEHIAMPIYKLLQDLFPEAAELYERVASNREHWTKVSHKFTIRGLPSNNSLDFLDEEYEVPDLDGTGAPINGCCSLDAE",
  "test": "PDE2 fluorescence polarization (IMAP FP) inhibition assay, rhesus enzyme",
  "assay_type": "biochemical, rhesus macaque",
  "description": "The activity of the compounds in accordance with the present invention as PDE2 inhibitors may be readily determined using a fluorescence polarization (FP) methodology (Huang, W., et al., J. Biomol Screen, 2002, 7: 215).\nIn a typical experiment the PDE2 inhibitory activity of the compounds of the present invention was determined in accordance with the following experimental method. Rhesus PDE2A3 was amplified from rhesus macaque brain cDNA (Biochain Institute, Hayward, Calif.) using primers based on human PDE2A sequence (accession NM_002599.3) where the forward primer containing a Kozak consensus was 5′-[…]-3′ and the reverse primer was 5′-[…]-3′. Amplification with Easy-A High-Fidelity PCR cloning enzyme (Stratagene, La Jolla, Calif.) was 95° C. for 2 minutes followed by thirty three cycles of 95° C. for 40 seconds, 52° C. for 30 seconds, and 72° C. for 2 minutes 48 seconds. Final extension was 72° C. for 7 minutes. The PCR product was TA cloned into pcDNA3.3-TOPO (Invitrogen, Carlsbad, Calif.) according to standard protocol. A consensus sequence was developed from multiple clones and then deposited into GenBank (EU812167). AD293 cells (Stratagene, La Jolla, Calif.) with 70-80% confluency were transiently transfected with rhesus PDE2A3/pcDNA3.3-TOPO using Lipofectamine 2000 according to manufacturer specifications (Invitrogen, Carlsbad, Calif.). Cells were harvested 48 hours post-transfection and lysed by sonication (setting 3, 10×5 sec pulses) in a buffer containing 20 mM HEPES pH 7.4, 1 mM EDTA and Complete Protease Inhibitor Cocktail Tablets (Roche, Indianapolis, Ind.). Lysate was collected by centrifugation at 75,000×g for 20 minutes at 4° C. and supernatant utilized for evaluation of PDE2 activity. The fluorescence polarization assay for cyclic nucleotide phosphodiesterases was performed using an IMAP® FP kit supplied by Molecular Devices, Sunnyvale, Calif. (product # R8139). […] Assays were performed at room temperature in 384-well microtiter plates with an incubation volume of 20.2 μL. Solutions of test compounds were prepared in DMSO and serially diluted with DMSO to yield 8 μL of each of 10 solutions differing by 3-fold in concentration, at 32 serial dilutions per plate. […] 0% of inhibition is determined by using DMSO (1% final concentrations).\nA Labcyte Echo 555 (Labcyte, Sunnyvale, Calif.) is used to dispense 200 nL from each well of the titration plate to the 384 well assay plate. Ten microliters of a solution of enzyme (1/2000 final dilution from aliquots; sufficient to produce 20% substrate conversion) was added to the assay plate. Next 10 uL of a separate solution of the substrate FAM-labeled cAMP (50 nM final concentration product # R7506 from Molecular Devices) and the activator cGMP (1 uM final concentration), prepared in the assay buffer (10 mM Tris HCl, pH 7.2, 10 mM MgCl2, 0.05% NaN3 0.01% Tween-20, and 1 mM DTT) was added to the assay plate and shaken to mix. The reaction is allowed to proceed at room temperature for 60 minutes. A binding solution is then made from the kit components, comprised of 80% Solution A, 20% Solution B and binding reagent at a volume of 1/600 the total binding solution. The enzymatic reaction is stopped by addition of 60 μL of the binding solution to each well of the assay plates and the plates are sealed and shaken for 30 seconds. The plate was incubated at room temperature for at least one hour prior to determining the fluorescence polarization (FP). The parallel and perpendicular fluorescence of each well of the plate was measured using a Tecan Genios Pro plate reader (Tecan, Switzerland) or Perkin Elmer EnVision™ plate reader (Waltham, Mass.). Fluorescence polarization (mP) was calculated from the parallel (S) and perpendicular (P) fluorescence of each sample well and the analogous values for the median control well, containing only substrate (So and Po), using the following equation: Polarization (mP)=1000*(S/So−P/Po)/(S/So+P/Po).",
  "key": {"[1]": {"conditions": "Rhesus PDE2, Lab A, read-out: Rhesus PDE2 Ki (nM) - Lab A"}, "[2]": {"conditions": "Rhesus PDE2, Lab B, read-out: Rhesus PDE2 Ki (nM) - Lab B"}},
  "note": "Read-outs that look alike come from different tables or passages of the source.",
  "data": [
    {"smiles": "Cc1nc(C(=O)N[C@H](C)c2cccc(C(F)(F)F)c2)cc(=O)[nH]1", "note": "[Example 271, 2-methyl-6-oxo-N-{(1R)-1-[3-(trifluoromethyl)phenyl]ethyl}-1,6-dihydropyrimidine-4-carboxamide]", "values": [
      {"measurement": "Ki", "setting": "[1]", "value": 2960, "unit": "nM"}
    ]},
    {"smiles": "C[C@@H](NC(=O)c1cc(=O)[nH]c(-c2ncccn2)n1)c1ccc(CC(F)(F)F)cc1", "note": "[Example 107, 6-oxo-N-{(1R)-1-[4-(2,2,2-trifluoroethyl)phenyl]ethyl}-1,6-dihydro-2,2′-bipyrimidine-4-carboxamide]", "values": [
      {"measurement": "Ki", "setting": "[1]", "value": 21, "unit": "nM"}
    ]},
    {"smiles": "CC1(C(NC(=O)c2cc(=O)[nH]c(-c3ccccc3)n2)c2ccc(SC(F)(F)F)c(F)c2)CC1", "note": "(single isomer, unassigned) [Example 706, (S)- or (R)-N-((3-fluoro-4-((trifluoromethyl)thio)phenyl)(1-methylcyclopropyl)methyl)-6-oxo-2-phenyl-1,6-dihydropyrimidine-4-carboxamide]", "values": [
      {"measurement": "Ki", "setting": "[2]", "value": "> 2970", "unit": "nM"}
    ]},
    {"smiles": "COC(=O)c1ccc(C(C)(C)NC(=O)c2cc(=O)[nH]c(C3CC3)n2)cc1", "note": "[Example 215, methyl 4-(1-{[(2-cyclopropyl-6-oxo-1,6-dihydropyrimidin-4-yl)carbonyl]amino}-1-methylethyl)benzoate]", "values": [
      {"measurement": "Ki", "setting": "[1]", "value": 967, "unit": "nM"}
    ]},
    {"smiles": "Cc1nc(C(=O)N[C@H](C)c2ccc(C(F)(F)F)c3ccccc23)cc(=O)[nH]1", "note": "[Example 28, 2-methyl-6-oxo-N-{(1R)-1-[4-(trifluoromethyl)naphthalen-1-yl]ethyl}-1,6-dihydropyrimidine-4-carboxamide]", "values": [
      {"measurement": "Ki", "setting": "[1]", "value": 3490, "unit": "nM"}
    ]},
    {"smiles": "CC(NC(=O)c1cc(=O)[nH]c(-c2ccccc2)n1)c1ccc2c(c1)OCO2", "note": "(centres unmarked) [Example 376, N-[1-(1,3-benzodioxol-5-yl)ethyl]-6-oxo-2-phenyl-1,6-dihydropyrimidine-4-carboxamide]", "values": [
      {"measurement": "Ki", "setting": "[1]", "value": "~672", "unit": "nM"},
      {"measurement": "Ki", "setting": "[2]", "value": 891, "unit": "nM"}
    ]},
    {"smiles": "Cc1nc(C(=O)N[C@H](C)c2ccc([S+]([O-])C(F)(F)F)cc2)cc(=O)[nH]1", "note": "(some centres unmarked) [Example 330]", "values": [
      {"measurement": "Ki", "setting": "[1]", "value": 809, "unit": "nM"}
    ]},
    {"smiles": "COc1cc(C(F)(F)F)ccc1[C@@H](C)NC(=O)c1cc(=O)[nH]c(-c2ccccc2)n1", "note": "[Example 188, N-{(1R)-1-[2-methoxy-4-(trifluoromethyl)phenyl]ethyl}-6-oxo-2-phenyl-1,6-dihydropyrimidine-4-carboxamide]", "values": [
      {"measurement": "Ki", "setting": "[1]", "value": 1010, "unit": "nM"}
    ]},
    {"smiles": "CC(C)c1ccc(CNC(=O)c2cc(=O)[nH]c(-c3ccccc3)n2)cc1", "note": "[Example 414, N-[4-(1-methylethyl)benzyl]-6-oxo-2-phenyl-1,6-dihydropyrimidine-4-carboxamide]", "values": [
      {"measurement": "Ki", "setting": "[2]", "value": 136, "unit": "nM"}
    ]},
    {"smiles": "Cc1nc(C(=O)NC(C)c2ccc(-c3ccccc3)cc2)cc(=O)[nH]1", "note": "(single isomer, unassigned) [Example 308, (S)- or (R)-N-(1-biphenyl-4-ylethyl)-2-methyl-6-oxo-1,6-dihydropyrimidine-4-carboxamide]", "values": [
      {"measurement": "Ki", "setting": "[1]", "value": 2500, "unit": "nM"}
    ]},
    {"smiles": "Cc1nc(C(=O)NC(C)c2ccc(C(C)C)cc2)cc(=O)[nH]1", "note": "(single isomer, unassigned) [Example 306, (S)- or (R)-2-methyl-N-{1-[4-(1-methylethyl)phenyl]ethyl}-6-oxo-1,6-dihydropyrimidine-4-carboxamide]", "values": [
      {"measurement": "Ki", "setting": "[1]", "value": 2380, "unit": "nM"}
    ]},
    {"smiles": "CC(NC(=O)c1cc(=O)[nH]c(-c2ccccc2)n1)c1cccc(Cl)c1", "note": "(centres unmarked) [Example 368, N-[1-(3-chlorophenyl)ethyl]-6-oxo-2-phenyl-1,6-dihydropyrimidine-4-carboxamide]", "values": [
      {"measurement": "Ki", "setting": "[1]", "value": "~880", "unit": "nM"},
      {"measurement": "Ki", "setting": "[2]", "value": 1100, "unit": "nM"}
    ]},
    {"smiles": "Cc1nc(C(=O)N[C@H](C)c2ccc(-c3cccnc3)cc2)cc(=O)[nH]1", "note": "[Example 320, 2-methyl-6-oxo-N-[(1R)-1-(4-pyridin-3-ylphenyl)ethyl]-1,6-dihydropyrimidine-4-carboxamide]", "values": [
      {"measurement": "Ki", "setting": "[1]", "value": 1700, "unit": "nM"}
    ]},
    {"smiles": "CCOC(=O)c1ccc([C@H](C)NC(=O)c2cc(=O)[nH]c(-c3ncccn3)n2)cc1", "note": "[Example 431, ethyl 4-[(1S)-1-{[(6-oxo-1,6-dihydro-2,2′-bipyrimidin-4-yl)carbonyl]amino}ethyl]benzoate]", "values": [
      {"measurement": "Ki", "setting": "[2]", "value": "~2890", "unit": "nM"}
    ]},
    {"smiles": "COc1ccc(C(C)(C)c2nc(C(=O)N[C@@H](c3ccc(SC(F)(F)F)cc3)C(C)(C)C)cc(=O)[nH]2)cc1", "note": "[Example 488, N-[(1R)-2,2-dimethyl-1-{4-[(trifluoromethyl)sulfanyl]phenyl}propyl]-2-[1-(4-methoxyphenyl)-1-methylethyl]-6-oxo-1,6-dihydropyrimidine-4-carboxamide]", "values": [
      {"measurement": "Ki", "setting": "[2]", "value": 116, "unit": "nM"}
    ]},
    {"smiles": "CC1(C(NC(=O)c2cc(=O)[nH]c(-c3ncccn3)n2)c2ccc(SC(F)(F)F)c(F)c2)CC1", "note": "(single isomer, unassigned) [Example 708, (S)- or (R)-N-((3-fluoro-4-((trifluoromethyl)thio)phenyl)(1-methylcyclopropyl)methyl)-6-oxo-1,6-dihydro-[2,2′-bipyrimidine-4-carboxamide]", "values": [
      {"measurement": "Ki", "setting": "[2]", "value": "~2120", "unit": "nM"}
    ]},
    {"smiles": "O=C(c1cc(=O)[nH]c(-c2ccccc2)n1)N1Cc2cnc(-c3ccccc3)nc2C1", "note": "[Example 409, 2-phenyl-6-[(2-phenyl-5,7-dihydro-6H-pyrrolo[3,4-d]pyrimidin-6-yl)carbonyl]pyrimidin-4(3H)-one]", "values": [
      {"measurement": "Ki", "setting": "[2]", "value": 3930, "unit": "nM"}
    ]},
    {"smiles": "COC(=O)c1ccc(C(C)(C)NC(=O)c2cc(=O)[nH]c(-c3ccccc3)n2)cc1", "note": "[Example 160, methyl 4-(1-methyl-1-{[(6-oxo-2-phenyl-1,6-dihydropyrimidin-4-yl)carbonyl]amino}ethyl)benzoate]", "values": [
      {"measurement": "Ki", "setting": "[1]", "value": 826, "unit": "nM"}
    ]},
    {"smiles": "CC(NC(=O)c1cc(=O)[nH]c(C2CC2)n1)c1ccccc1C(F)(F)F", "note": "(centres unmarked) [Example 220, 2-cyclopropyl-6-oxo-N-{1-[2-(trifluoromethyl)phenyl]ethyl}-1,6-dihydropyrimidine-4-carboxamide]", "values": [
      {"measurement": "Ki", "setting": "[1]", "value": 10700, "unit": "nM"}
    ]},
    {"smiles": "C[C@@H](NC(=O)c1cc(=O)[nH]c(-c2ccccc2)n1)c1ccc(CN(C)C)cc1", "note": "[Example 365, N-[(1R)-1-{4-[(dimethylamino)methyl]phenyl}ethyl]-6-oxo-2-phenyl-1,6-dihydropyrimidine-4-carboxamide]", "values": [
      {"measurement": "Ki", "setting": "[1]", "value": 6850, "unit": "nM"}
    ]},
    {"smiles": "C[C@H](NC(=O)c1cc(=O)[nH]c(-c2ccccc2)n1)c1ccc([N+](=O)[O-])cc1", "note": "[Example 458, N-[(1S)-1-(4-nitrophenyl)ethyl]-6-oxo-2-phenyl-1,6-dihydropyrimidine-4-carboxamide]", "values": [
      {"measurement": "Ki", "setting": "[2]", "value": 8130, "unit": "nM"}
    ]},
    {"smiles": "CC(NC(=O)c1cc(=O)[nH]c(-c2ccccc2)n1)c1ccc(S(C)(=O)=O)cc1", "note": "(centres unmarked) [Example 382, N-{1-[4-(methylsulfonyl)phenyl]ethyl}-6-oxo-2-phenyl-1,6-dihydropyrimidine-4-carboxamide]", "values": [
      {"measurement": "Ki", "setting": "[2]", "value": 3120, "unit": "nM"}
    ]},
    {"smiles": "CC(NC(=O)c1cc(=O)[nH]c(-c2ccccc2)n1)c1ccc(F)cc1", "note": "(centres unmarked) [Example 343, N-[1-(4-fluorophenyl)ethyl]-6-oxo-2-phenyl-1,6-dihydropyrimidine-4-carboxamide]", "values": [
      {"measurement": "Ki", "setting": "[1]", "value": "~601", "unit": "nM"},
      {"measurement": "Ki", "setting": "[2]", "value": 682, "unit": "nM"}
    ]},
    {"smiles": "Cc1ccc([C@H](C)NC(=O)c2cc(=O)[nH]c(-c3ccccc3)n2)cc1", "note": "[Example 364, N-[(1S)-1-(4-methylphenyl)ethyl]-6-oxo-2-phenyl-1,6-dihydropyrimidine-4-carboxamide]", "values": [
      {"measurement": "Ki", "setting": "[2]", "value": 3950, "unit": "nM"}
    ]},
    {"smiles": "C[C@@H](NC(=O)c1cc(=O)[nH]c(-c2ncccn2)n1)c1cccc(C(F)(F)F)c1", "note": "[Example 80, 6-oxo-N-{(1R)-1-[3-(trifluoromethyl)phenyl]ethyl}-1,6-dihydro-2,2′-bipyrimidine-4-carboxamide]", "values": [
      {"measurement": "Ki", "setting": "[1]", "value": 845, "unit": "nM"}
    ]},
    {"smiles": "Cc1nc(C(=O)N[C@H](c2ccc(C(F)(F)F)cc2)C(C)C)cc(=O)[nH]1", "note": "[Example 315, 2-methyl-N-{(1S)-2-methyl-1-[4-(trifluoromethyl)phenyl]propyl}-6-oxo-1,6-dihydropyrimidine-4-carboxamide]", "values": [
      {"measurement": "Ki", "setting": "[1]", "value": 698, "unit": "nM"}
    ]}
  ]
}
